Laboratory results taken from patent US6197535A, “Methods for purifying and assaying a conus γ-carboxylase” (University of Utah Research Foundation, priority 1999, dated 2001).
No end group written: not given here.

Experiments:
Format in all cases: biochemical
[1] = tested on: Conus γ-glutamyl carboxylase (Conus radiatus venom duct microsomes); settings: for IC50: read-out: apparent IC50; for Km: read-out: apparent Km
[2] = target: T1, bovine microsomal γ-glutamyl carboxylase (Bos taurus, UniProt Q07175)
T1 construct: For experiments with bovine microsomes, 380 μg of microsomal protein was present in each reaction; from tissue; host or cells: bovine microsomes, gift of Dr. D. W. Stafford
T1 sequence (Q07175 1-758): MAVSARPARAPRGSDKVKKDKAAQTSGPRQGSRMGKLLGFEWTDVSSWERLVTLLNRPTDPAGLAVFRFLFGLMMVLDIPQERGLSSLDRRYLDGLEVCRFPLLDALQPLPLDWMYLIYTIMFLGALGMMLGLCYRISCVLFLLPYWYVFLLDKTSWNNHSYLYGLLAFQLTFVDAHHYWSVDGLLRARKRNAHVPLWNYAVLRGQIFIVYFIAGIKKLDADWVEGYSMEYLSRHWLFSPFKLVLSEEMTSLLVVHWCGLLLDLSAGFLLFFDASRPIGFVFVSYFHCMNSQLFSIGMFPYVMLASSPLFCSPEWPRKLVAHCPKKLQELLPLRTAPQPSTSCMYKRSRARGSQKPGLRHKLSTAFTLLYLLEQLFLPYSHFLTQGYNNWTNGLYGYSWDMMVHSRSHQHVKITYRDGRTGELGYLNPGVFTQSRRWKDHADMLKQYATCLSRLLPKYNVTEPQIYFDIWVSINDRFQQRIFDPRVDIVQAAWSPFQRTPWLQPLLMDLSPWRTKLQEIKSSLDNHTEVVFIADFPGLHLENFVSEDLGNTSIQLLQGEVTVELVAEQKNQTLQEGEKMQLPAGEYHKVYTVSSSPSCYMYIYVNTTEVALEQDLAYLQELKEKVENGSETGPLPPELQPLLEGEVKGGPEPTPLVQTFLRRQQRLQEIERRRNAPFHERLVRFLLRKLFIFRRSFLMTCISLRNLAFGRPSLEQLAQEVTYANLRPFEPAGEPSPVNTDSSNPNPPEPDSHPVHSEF

[3] = tested on: Conus γ-carboxylase

In the case of ALKAEPVLLQKSAARSTDDN [Pro (-40 to -21)], the “effect on the carboxylation of FLEEL or E.ConG” value [1] is reported as “no effect”, the “inhibition of carboxylation of -10.Pro-E.Con-G” value [1] is reported as “did not inhibit” and the IC50 [1] is reported as greater than 1000 µM.

With FLEEL [reference compound] the “pmol 14CO2 Incorporated” value [1] was 818 pmol, the Km [1] was 301 ± 6 µM and the “pmol 14CO2 Incorporated” value [2] was 249 pmol.

“GKDRLTQMKRILKQRGNKARFLEEL-NH2 [-20.Pro-FLEEL]” gave a Km [1] of 4 µM.

With “GKDRLTQMKRILKQRGNKARGEEELQENQELIREKSN-NH2 [-20.Pro-E.Con-G]” the “Glu residues carboxylated (Gla analysis of reaction product)” value [3] was “Glu2 was not carboxylated. The rest of the Glu residues were carboxylated, although Glu14 was not efficiently carboxylated”, the “pmol 14CO2 Incorporated” value [1] was 2741 pmol and the “substrate quality for γ-carboxylation, Conus enzyme” value [1] was “excellent substrate”. The Km [1] was 28 ± 3 µM, the “pmol 14CO2 Incorporated” value [2] was 3 pmol and the “substrate quality for γ-carboxylation, mammalian enzyme” value [2] was “extremely poor”.

With GTGTLDDGGALTERRSADAT [Pro (-60 to -41)] the “effect on the carboxylation of FLEEL or E.ConG” value [1] was “no effect”, the “inhibition of carboxylation of -10.Pro-E.Con-G” value [1] was “did not inhibit” and the IC50 [1] was greater than 1000 µM.

Work on “ILKQRGNKARGEEELQENQELIREKSN-NH2 [-10.Pro-E.Con-G]” yielded a Km [1] of 1840 ± 109 µM.

For “KSAARSTDDNGKDRLTQMKRILKQRGNKAR [Pro (-30 to -1)]”, the IC50 [1] was 200 µM.
